From patent US20240376165A1, “COMPOSITION COMPRISING VGLL1 PEPTIDE FOR TREATMENT OF CANCER” (ONECUREGEN CO., LTD., priority 2020, published 2024)
d = 2'-deoxy (DNA); r = 2'-OH (RNA)

Assays:
[1] = tested on: stomach cancer cell line NUGC3; experiment: Cancer cell proliferation with peptide variants, real-time cell analysis (Incucyte); format: cell-based, human; settings: NUGC3, 60 μM peptide, FIG. 11
Procedure: The stomach cancer cell line NUGC3 was cultured in a 96-well plate, and the next day, the cells were treated with 60 μM peptide. The cell proliferation was analyzed using a real-time cell analysis system (product name: Incucyte).
FIG. 11A is a graph of real-time cell proliferation, and FIG. 11B is a graph showing cell proliferation after 4 days based on 100% control peptide.

liver cancer cells = experiment: Proliferation of various cancer cells: liver cancer; format: cell-based; settings: 60 μM peptide; HepG2, SNU354; FIG. 12
Procedure: (§1) In order to confirm the various cancer cell proliferation inhibitory effects of the variant of S84 VGLL1 peptide fragment, the VGLL1 S84 peptide sequence represented by SEQ ID NO: 27 was treated into various cancer cell lines.
(§2) Specifically, the cancer cells of Table 8 were cultured in a 96-well plate and treated with 60 μM peptide on the next day, and cell proliferation was analyzed using a real-time cell analysis system (product name: IncuCyte Zoom).

stomach cancer cells = experiment: Proliferation of various cancer cells: stomach cancer; format: cell-based; settings: 60 μM peptide; NUGC3, AG5, NCI-N87, SNU484, MKN1; FIG. 12
Procedure: as §1, §2

prostate cancer cells = experiment: Proliferation of various cancer cells: prostate cancer; format: cell-based; settings: 60 μM peptide; FIG. 12
Procedure: as §1, §2

breast cancer cells = experiment: Proliferation of various cancer cells: breast cancer; format: cell-based; settings: 60 μM peptide; MCF7, SKBR3; FIG. 12
Procedure: as §1, §2

lung cancer cells = experiment: Proliferation of various cancer cells: lung cancer; format: cell-based; settings: 60 μM peptide; A549, H1650, H1299; FIG. 12
Procedure: as §1, §2

MMP9 [2] = experiment: MMP9 protein expression induced by TGF-β, western blot, peptide treatment; format: cell-based, human; settings: NUGC3, TGF-β and peptide for 18 hours, FIG. 8
Procedure: To evaluate whether the peptide fragment that interferes the binding between VGLL1 and TEAD4 can inhibit MMP9 expression in human stomach cancer cells, peptides shown in Table 6 were prepared to examine their effects on MMP9 expression.
Experiments were performed using the synthetic peptide fragments. The stomach cancer NUGC3 cells were cultured in a 6-well plate. The next day, cells were cultured in serum-free cell culture for 24 hours. TGF-β and a control peptide fragment (SEQ ID NO: 12), a peptide fragment containing serine at position 84 of VGLL1 (SEQ ID NO: 27), and a mutant peptide fragment containing alanine at position 84 of VGLL1 (SEQ ID NO: 28) were treated into cells for 18 hours. Proteins were extracted from the cells using a Ripa buffer and were separated by electrophoresis. Thereafter, protein expression of genes was confirmed by using an antibody on the polyvinylidene fluoride membrane.

[3] = tested on: stomach cancer cell line NUGC3; experiment: Cancer cell invasion with peptide fragment; format: cell-based, human; settings: NUGC3, insert, 48 hours, FIG. 10
Procedure: (§3) Next, in order to confirm the cell invasive ability of MMP9, a cell culture insert was fixed in a 24-well plate. Matrigel was diluted 20-fold, and 100 μl of diluent was added. The reaction was carried out at 37° C. for 1 hour or longer. 700 μl of medium containing 10% serum was added to a 24-well plate under the insert. MMP knockdown cells with the above siRNA were added to the insert according to 300 μl of serum-free medium to a concentration of 5×10^5. After 48 hours, the insert was removed and cells were fixed in 10% formalin solution. Cells remaining inside the insert were removed with a cotton swab and washed with water. Cells were stained with 0.4% Sulforhodamine B solution for 1 hour, washed with acetic acid, and dried. Then, a photograph was taken with an optical microscope, the membrane on the insert was cut, and Sulforhodamine B in stained cells was dissolved in 10 mM Tris solution, and absorbance was measured at 540 nm using an ELISA plate reader (FIG. 2C).
A method similar to Example 1-2 was performed for stomach cancer cell invasion experiment by the VGLL1 peptide fragment.
The stomach cancer cell line NUGC3 was placed in an insert together with the peptide fragment. After 48 hours of cell culture, the insert was fixed in a 10% formalin solution, and the downwardly migrated cells were confirmed by staining with 0.4% Sulforhodamine B solution.

[4] = tested on: stomach cancer cell line NUGC3; experiment: Cancer cell proliferation, real-time cell analysis (IncuCyte Zoom); format: cell-based, human; settings: FIG. 9
Procedure: Specifically, the stomach cancer cell line NUGC3 was cultured in a 96-well plate. The next day, the cells were treated with the peptide fragment. The cell proliferation was analyzed using a real-time cell analysis system (product name: IncuCyte Zoom).

ovarian cancer cells = experiment: Proliferation of various cancer cells: ovarian cancer; format: cell-based; settings: 60 μM peptide; SK-OV3; FIG. 12
Procedure: as §1, §2

cervical cancer cells = experiment: Proliferation of various cancer cells: cervical cancer; format: cell-based; settings: 60 μM peptide; Hela; FIG. 12
Procedure: as §1, §2

colorectal cancer cells = experiment: Proliferation of various cancer cells: colorectal cancer; format: cell-based; settings: 60 μM peptide; SW620, HCT116, WiDr; FIG. 12
Procedure: as §1, §2

MMP9 [5] = experiment: MMP9 mRNA expression after TGF-β treatment, RT-PCR; format: cell-based, human; settings: NUGC3, 20 nM siRNA, TGF-β 18 hours, compared to control (siSC), FIG. 4
Procedure: In order to determine whether VGLL1 and TEAD4 were involved in MMP9 mRNA expression in NUGC3 human stomach cancer cells, MMP9 mRNA expression was examined by RT-PCR after TGF-β treatment.
Specifically, the stomach cancer cell line NUGC3 was cultured in a 6-well plate. The next day, 20 nM siSC, siVGLL1, siTEAD4, and siYAP were mixed with Lipofectamine 2000, and the cell line was treated with the mixture. The next day, after treatment with TGF-β for 18 hours, mRNA was extracted from the cells and complementary DNA was synthesized, followed by RT-PCR.

MMP9 promoter = MMP9 promoter luciferase activity after TGF-β treatment; format: cell-based, human; settings: NUGC3, 20 nM siRNA, TGF-β 18 hours, compared to control (siSC), FIG. 3
Procedure: In order to determine whether VGLL1 and TEAD4 were involved in MMP9 promoter activity in NUGC3 human stomach cancer cell line, the MMP9 promoter luciferase activity was investigated after TGF-β treatment.
Specifically, the stomach cancer cell NUGC3 was cultured in a 48-well plate at a concentration of 2× 10^4 cells/well. The next day, the MMP9 gene-inserted pGL4.17-luciferase vector was transfected into cells using Lipofectamine 2000. After 24 hours, 20 nM siSC (SEQ ID NO: 23: 5′-CCUACGCCACCAAUUUCGUdTdT-3′) siVGLL1 (SEQ ID NO 24: 5′-[…]dTdT-3′), siTEAD4 (SEQ ID NO 25: 5′-GACACUACUCUUACCGCAUdTdT-3′), and siYAP (SEQ ID NO 26: 5′-CCACCA AGCUAGAUAAAGAAAdTdT-3′) were mixed with Lipofectamine 2000, and the cells were treated with the mixture. The next day, the cells were treated with TGF-β for 18 hours. Thereafter, the cells were disrupted using a passive lysis buffer. Then, after centrifuging cells, a supernatant was obtained. […] At this time, the degree of luminescence of the cells was checked using Victor X Light.

MMP9 [6] = experiment: MMP9 expression by TGF-β treatment, RT-PCR; format: cell-based, human; settings: NUGC3, RT-PCR, after 6 hours of TGF-β treatment, FIG. 1
Procedure: In order to confirm the expression change of MMP9 according to TGF-β treatment in stomach cancer cell lines, the human stomach cancer cell line NUGC3 was treated with TGF-β at each time period, then mRNA was extracted from the cells, and complementary DNA was synthesized. Then RT-PCR was performed using Matrix metalloproteinase 9 (MMP9) primers (Table 4).

[7] = tested on: stomach cancer cell line NUGC3; experiment: Matrigel cell invasion after siRNA; format: cell-based, human; settings: NUGC3, siRNA knockdown cells, Matrigel insert, 48 hours, FIG. 2C
Procedure: as §3

MMP9 [8] = experiment: MMP9 knockdown by siRNA, RT-PCR; format: cell-based, human; settings: NUGC3, 20 nM siRNA, 48 hours, FIG. 2A
Procedure: Specifically, the stomach cancer cells line NUGC3 was cultured in a 6-well plate overnight, and then treated with the mixture of Lipofectamine 2000 and 20 nM siSC or siMMP9 (SEQ ID NO: 22) and. After 48 hours, mRNA was extracted from the cells and complementary DNA was synthesized, followed by RT-PCR using the MMP9 primer (FIG. 2A).

[9] = tested on: stomach cancer cell line NUGC3; experiment: Cell proliferation after siRNA, Sulforhodamine B staining; format: cell-based, human; settings: NUGC3, 20 nM siRNA, 48 hours, FIG. 2B
Procedure: In addition, in order to confirm the cell proliferation ability of MMP9, the stomach cancer cell line NUGC3 was cultured in a 96-well plate. The next day, cells were treated with the mixture of Lipofectamine 2000 and 20 nM siSC or siMMP9. After 48 hours, cells were fixed using 1% formalin solution. Thereafter, the cells were stained with 0.4% Sulforhodamine B solution for 1 hour, washed with acetic acid, and dried. Then, the cells were dissolved in a 10 mM Tris solution, and absorbance was measured at 540 nm using an ELISA plate reader (FIG. 2B).

[10] = target: T1, GFP-TEAD4, expressed from the GFP-TEAD4 vector (UniProt Q15561 1-434); experiment: co-immunoprecipitation with HA antibody agarose, western blot with GFP antibody
T1 construct: Detected with GFP antibody in the HA immunoprecipitate; also called transcription factor TEAD4; not shown: GFP tag
T1 sequence (Q15561 whole entry): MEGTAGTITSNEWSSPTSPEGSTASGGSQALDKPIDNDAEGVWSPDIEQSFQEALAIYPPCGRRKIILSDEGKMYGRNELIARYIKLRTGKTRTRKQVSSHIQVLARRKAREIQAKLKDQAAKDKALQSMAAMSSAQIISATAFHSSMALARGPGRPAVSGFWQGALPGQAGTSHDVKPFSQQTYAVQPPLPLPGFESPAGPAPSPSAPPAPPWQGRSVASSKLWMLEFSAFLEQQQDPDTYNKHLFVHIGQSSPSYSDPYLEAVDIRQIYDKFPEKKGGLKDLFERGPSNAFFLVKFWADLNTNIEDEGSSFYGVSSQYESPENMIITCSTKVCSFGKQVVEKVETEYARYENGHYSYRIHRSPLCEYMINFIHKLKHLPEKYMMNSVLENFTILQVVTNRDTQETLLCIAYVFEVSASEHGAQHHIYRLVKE
Procedure: Specifically, the GFP-TEAD4 vector and pcDNA3-HA (EV), pcDNA3-HA-VGLL1 (WT), pcDNA3-HA-VGLL1-S50A (S50A mutation), pcDNA3-HA-VGLL1-S84A (S84A mutation), and pcDNA3-HA-VGLL1-S124A (S124A mutation) were mixed with Turbofect. The mixture was transformed to the cell lines cultured for 24 hours. After 48 hours, the protein was extracted from the cells using a Ripa buffer. The extracted protein was subjected to immunoprecipitation using agarose bound with HA antibody and separated by electrophoresis. Thereafter, western blot analysis was performed using an antibody on the polyvinylidene fluoride membrane.

YGRKKRRQRRR-PNQWRYSSPWAKPQP (YGRKKRRQRRRPNQWRYSSPWAKPQP; HIV TAT sequence linked; Tat-VGLL1(T87A)) [VGLL1 T87A]
inhibition of cancer cell proliferation [1]: excellent effect in inhibiting cancer cell proliferation

YGRKKRRQRRRPNQWRYSSPWTKPQP [VGLL1 (S84)]
inhibition of proliferation of liver cancer cells (liver cancer cells): excellent effect in inhibiting the proliferation | inhibition of proliferation of stomach cancer cells (stomach cancer cells): excellent effect in inhibiting the proliferation | inhibition of proliferation of prostate cancer cells (prostate cancer cells): excellent effect in inhibiting the proliferation | inhibition of proliferation of breast cancer cells (breast cancer cells): excellent effect in inhibiting the proliferation | inhibition of proliferation of lung cancer cells (lung cancer cells): excellent effect in inhibiting the proliferation | increased MMP9 expression by TGF-β (MMP9 [2]): reduced | inhibition of cancer cell invasion [3]: exhibited an effect of inhibiting cancer cell invasion | inhibition of cancer cell proliferation [4]: exhibited an effect of inhibiting cancer cell proliferation | inhibition of proliferation of ovarian cancer cells (ovarian cancer cells): excellent effect in inhibiting the proliferation | inhibition of proliferation of cervical cancer cells (cervical cancer cells): excellent effect in inhibiting the proliferation | inhibition of cancer cell proliferation [1]: excellent effect in inhibiting cancer cell proliferation | inhibition of proliferation of colorectal cancer cells (colorectal cancer cells): excellent effect in inhibiting the proliferation

YGRKKRRQRRRPNQWRYSAPWTKPQP (HIV TAT domain linked; Tat-VGLL1(S84A)) [VGLL1 (S84A), reference compound]
increased MMP9 expression by TGF-β (MMP9 [2]): not affected | inhibition of cancer cell invasion [3]: did not exhibit such an effect | inhibition of cancer cell proliferation [4]: did not have any effect

YGRKKRRQRRR-PNQWRYSSAWTKPQP (YGRKKRRQRRRPNQWRYSSAWTKPQP; HIV TAT sequence linked; Tat-VGLL1(P85A)) [VGLL1 P85A]
inhibition of cancer cell proliferation [1]: excellent effect in inhibiting cancer cell proliferation

5′-AGCCUAUAAAGACGGAAUGGAAUdTdT-3′ (sense AGCCUAUAAAGACGGAAUGGAAUTT; sugars from the 5' end r23 d2, backbone not given here) [siVGLL1, siRNA against VGLL1]
MMP9 mRNA expression increased by TGF-β (MMP9 [5]): decreased | MMP9 promoter activity increased by TGF-β (MMP9 promoter): decreased

Transforming growth factor-β [TGF-β]
expression of MMP9 (MMP9 [6]): increased

YGRKKRRQRRR-YSSPWTK (YGRKKRRQRRRYSSPWTK; HIV TAT sequence linked; Tat-VGLL1(S84-S)) [VGLL1 S84-S]
inhibition of cancer cell proliferation [1]: excellent effect in inhibiting cancer cell proliferation

5′-GACACUACUCUUACCGCAUdTdT-3′ [siTEAD4]
MMP9 mRNA expression increased by TGF-β (MMP9 [5]): decreased | MMP9 promoter activity increased by TGF-β (MMP9 promoter): decreased

5′-CCACAACAUCACCUAUUGGAUdTdT-3′ [siMMP9]
cell invasiveness [7]: greatly reduced cell invasiveness | expression of MMP9 (MMP9 [8]): reduced expression of MMP9 | cell viability [9]: greatly reduced cell viability

YGRKKRRQRRR (HIV-1 Tat) [Control peptide]
inhibition of cancer cell proliferation [4]: did not have any effect

B1: HA-VGLL1-S84A, expressed from pcDNA3-HA-VGLL1-S84A (other)
chain: MEEMKKTAIRLPKGKQKPIKTEWNSRCVLFTYFQGDISSVVDEHFSRALSNIKSPQELTPSSQSEGVMLKNDDSMSPNQWRYSAPWTKPQPEVPVTNRAANCNLHVPGPMAVNQFSPSLARRASVRPGELWHFSSLAGTSSLEPGYSHPFPARHLVPEPQPDGKREPLLSLLQQDRCLARPQESAARENGNPGQIAGSTGLLFNLPPGSVHYKKLYVSRGSASTSLPNETLSELETPGKYSLTPPNHWGHPHRYLQHL
notes: Serine 84 of VGLL1 replaced with alanine by site-directed mutagenesis in the pcDNA3-HA-VGLL1 vector; also called S84A mutation; not shown: HA tag from the pcDNA3-HA vector
binding result [10]: no binding
